Several values for one entry are separate records, joined by “and”; a condition that tells them apart may be missing. Equal entries are not always repeated. Inconclusive results and toxic doses are left out.
Tested on: BDF1 mice, P388 leukemia ip, median survival T/C
Assay: NCI In Vivo Anticancer Drug Screen. Data for tumor model P388 Leukemia (intraperitoneal) in B6D2F1 (BDF1) mice
Settings: endpoint: median survival time, higher = longer survival
Procedure, shortened: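 Survival ratio, drug arm over vehicle arm, in mice with a transplanted tumour.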

[1] = dose: 50.0 mg/kg/injection, schedule: Q04DX003 (ip), vehicle: saline with Tween-80

Compound: CN(C)CC/C=C1\c2ccccc2C(C)(C)c2ccc(Cl)cc21
- T/C (dose: 6.0 mg/kg/injection, schedule: Q04DX003 (ip), vehicle: saline with Tween-80): 95 % of control
- T/C (dose: 6.25 mg/kg/injection, schedule: Q01DX009 (ip), vehicle: Klucel (hydroxypropylcellulose) (HPC)): 100 % of control
- T/C (dose: 11.0 mg/kg/injection, schedule: Q04DX003 (ip), vehicle: saline with Tween-80): 104 % of control
- T/C (dose: 12.5 mg/kg/injection, schedule: Q01DX009 (ip), vehicle: Klucel (hydroxypropylcellulose) (HPC)): 111 % of control
- T/C (dose: 16.5 mg/kg/injection, schedule: Q01DX009 (ip), vehicle: Klucel (hydroxypropylcellulose) (HPC)): 90 % of control and 100 % of control
- T/C (dose: 22.0 mg/kg/injection, schedule: Q04DX003 (ip), vehicle: saline with Tween-80): 104 % of control
- T/C (dose: 25.0 mg/kg/injection, schedule: Q01DX009 (ip), vehicle: Klucel (hydroxypropylcellulose) (HPC)): 88 % of control and 100 % of control
- T/C (dose: 33.0 mg/kg/injection, schedule: Q04DX003 (ip), vehicle: saline with Tween-80): 100 % of control and 104 % of control
- T/C (dose: 37.5 mg/kg/injection, schedule: Q01DX009 (ip), vehicle: Klucel (hydroxypropylcellulose) (HPC)): 90 % of control and 92 % of control
- T/C [1]: 110 % of control and 112 % of control
- T/C (dose: 55.0 mg/kg/injection, schedule: Q01DX009 (ip), vehicle: Klucel (hydroxypropylcellulose) (HPC)): 95 % of control
- T/C (dose: 75.0 mg/kg/injection, schedule: Q04DX003 (ip), vehicle: saline with Tween-80): 115 % of control and 120 % of control
- T/C (dose: 85.0 mg/kg/injection, schedule: Q01DX009 (ip), vehicle: Klucel (hydroxypropylcellulose) (HPC)): 87 % of control
- T/C (dose: 125.0 mg/kg/injection, schedule: Q01DX009 (ip), vehicle: Klucel (hydroxypropylcellulose) (HPC)): 95 % of control

Compound: C=CCN(CC=C)CCNc1nc(C(Cl)(Cl)Cl)nc2ccc(Cl)cc12
- T/C (dose: 100.0 mg/kg/injection, schedule: Q04DX003 (ip), vehicle: saline with Tween-80): 100 % of control
- T/C (dose: 200.0 mg/kg/injection, schedule: Q04DX003 (ip), vehicle: saline with Tween-80): 112 % of control
- T/C (dose: 400.0 mg/kg/injection, schedule: Q04DX003 (ip), vehicle: saline with Tween-80): 116 % of control

Compound: CCOC(=O)c1c[nH]c2ccc(N(CCCl)CCCl)cc12
- T/C (dose: 0.29 mg/kg/injection, schedule: Q01DX009 (ip), vehicle: saline with Tween-80): 101 % of control
- T/C (dose: 0.44 mg/kg/injection, schedule: Q01DX009 (ip), vehicle: saline with Tween-80): 101 % of control
- T/C (dose: 0.88 mg/kg/injection, schedule: Q01DX009 (ip), vehicle: saline with Tween-80): 152 % of control
- T/C (dose: 0.88 mg/kg/injection, schedule: Q04DX003 (ip), vehicle: saline with Tween-80): 118 % of control
- T/C (dose: 1.32 mg/kg/injection, schedule: Q04DX003 (ip), vehicle: saline with Tween-80): 122 % of control
- T/C (dose: 1.33 mg/kg/injection, schedule: Q01DX009 (ip), vehicle: saline with Tween-80): 158 % of control
- T/C (dose: 2.0 mg/kg/injection, schedule: Q01DX009 (ip), vehicle: saline with Tween-80): 177 % of control
- T/C (dose: 2.66 mg/kg/injection, schedule: Q01DX009 (ip), vehicle: saline with Tween-80): 164 % of control
- T/C (dose: 3.0 mg/kg/injection, schedule: Q01DX009 (ip), vehicle: saline with Tween-80): 186 % of control
- T/C (dose: 4.0 mg/kg/injection, schedule: Q01DX009 (ip), vehicle: saline with Tween-80): 176 % of control
- T/C (dose: 5.0 mg/kg/injection, schedule: Q04DX003 (ip), vehicle: saline with Tween-80): 158 % of control
- T/C (dose: 6.0 mg/kg/injection, schedule: Q01DX009 (ip), vehicle: saline with Tween-80): 191 % of control
- T/C (dose: 7.5 mg/kg/injection, schedule: Q04DX003 (ip), vehicle: saline with Tween-80): 166 % of control
- T/C (dose: 9.0 mg/kg/injection, schedule: Q01DX009 (ip), vehicle: saline with Tween-80): 252 % of control
- T/C (dose: 12.5 mg/kg/injection, schedule: Q04DX003 (ip), vehicle: saline with Tween-80): 190 % of control
- T/C (dose: 25.0 mg/kg/injection, schedule: Q04DX003 (ip), vehicle: saline with Tween-80): 177 % of control
- T/C [1]: 218 % of control

Compound: CCOc1cc(C=Nc2cccc(C(F)(F)F)c2)ccc1O
- T/C (dose: 100.0 mg/kg/injection, schedule: Q04DX003 (ip), vehicle: other): 95 % of control
- T/C (dose: 400.0 mg/kg/injection, schedule: Q04DX003 (ip), vehicle: other): 95 % of control

Compound: Oc1c(Cl)cc(Cl)cc1C1Nc2ccccc2-n2cccc21 (configuration not stated)
- T/C (dose: 200.0 mg/kg/injection, schedule: Q01DX009 (ip), vehicle: saline with Tween-80): 88 % of control
